From the PolyMetriX glass transition set
± gives the standard deviation of the reports.

glass transition temperature [°C] | Structure (SMILES)
310.00 | *Oc1ccc(C2(c3ccc(Oc4ccc(C(=O)c5c(C(=O)c6ccc(*)cc6)c(-c6ccccc6)c(-c6ccc7ccccc7c6)c(-c6ccc7ccccc7c6)c5-c5ccccc5)cc4)cc3)c3ccccc3-c3ccccc32)cc1 (repeat unit)
63.00 | *Oc1ccc(CC(NC(=O)Cc2ccc(OC(=O)CC(C)CCC(*)=O)cc2)C(=O)OCC)cc1 (repeat unit)
94.00 | *CCCCCCNC(=O)C(CC)CC(CC)C(=O)N* (repeat unit)
209.00 | *CCCC(=O)Nc1ccc(NC(=O)CCCN2C(=O)c3ccc(C(=O)c4ccc5c(c4)C(=O)N(*)C5=O)cc3C2=O)cc1 (repeat unit)
144.00 | *NC1CCC(CC2CCC(NC(=O)CCCCCCCCC(*)=O)CC2)CC1 (repeat unit)
97.50 | *CC(OCCCC)C(C)(C(=O)OC)C(*)(C)C(=O)OC (repeat unit)
240.00 | *c1ccc(N2C(=O)c3ccc(C(=O)c4ccc5c(c4)C(=O)N(c4ccc(-c6nc7cc(S(=O)(=O)c8ccc9nc(-c%10ccccc%10)c(*)nc9c8)ccc7nc6-c6ccccc6)cc4)C5=O)cc3C2=O)cc1 (repeat unit)
79.50 | *CCOCCOCCOc1ccc(/C=C/c2cc(OC)c(/C=C/c3ccc(O*)c4ccccc34)cc2OC)c2ccccc12 (repeat unit)
74.50 | *CC(*)(C)C(=O)OCCCCCCCCCCCCOc1ccc(C(=O)Oc2ccc(-c3cccc(OC(=O)c4ccc(OC(=O)c5ccc(OCCCCCCCCCCCC)cc5)cc4)c3)cc2)cc1 (repeat unit)
221.00 | *CC(c1ccccc1)C1C(=O)N(c2ccccc2)C(=O)C1* (repeat unit)
70.00 | *CCCCC(=O)NCc1ccc(CNC(=O)CCCCO*)cc1 (repeat unit)
203.50 | *Nc1ccc(Nc2ccc(C(=O)c3ccc(C(=O)c4ccc(*)cc4)cc3)cc2)cc1 (repeat unit)
52.00 | *C(F)(F)C(=O)NCCCCCCNS(*)(=O)=O (repeat unit)
329.00 | *c1ccc(Oc2ccc(-n3c(=O)c4cc5c(=O)n(*)c(=O)c5cc4c3=O)cc2-c2ccccc2)cc1 (repeat unit)
196.00 | *CC(*)(C)C(=O)OC1(C)CCCN(c2ccc(/N=N/c3ccc(/C=C(\C#N)S(C)(=O)=O)cc3)cc2)C1 (repeat unit)
6.50 | *CCCCCCCOc1ccc(CCc2ccc(O*)cc2C)cc1 (repeat unit)
300.00 | *c1ccc(Oc2ccc(-c3ccc(Oc4ccc(-n5c(=O)c6cc7c(=O)n(*)c(=O)c7cc6c5=O)cc4)cc3)cc2)cc1 (repeat unit)
290.00 | *C(=O)c1ccc2c(c1)C(=O)N(c1cccc(Nc3ncnc(Nc4cccc(N5C(=O)c6ccc(*)cc6C5=O)c4)n3)c1)C2=O (repeat unit)
158.00 | *Oc1cccc(OC(=O)c2ccc(C(C)(C)c3ccc(C(*)=O)cc3)cc2)c1 (repeat unit)
290.00 | *C(=O)c1ccc2c(c1)C(=O)N(c1cccc(Nc3nc(Nc4cccc(N5C(=O)c6ccc(*)cc6C5=O)c4)nc(N(c4ccccc4)c4ccccc4)n3)c1)C2=O (repeat unit)
72.00 | *CC(O)C(O)CN(*)c1ccc(N(C)C)cc1 (repeat unit)
329.00 | *c1ccc2nc(-c3ccc4c(c3)C(=O)N(c3cc(C(*)(C(F)(F)F)C(F)(F)F)ccc3O)C4=O)oc2c1 (repeat unit)
-38.00 | *N=P(*)(OCCOCCOCCOP1(OCCOCCOC)=NP(OCCOCCOC)(OCCOCCOC)=NP(OCCOCCOC)(OCCOCCOC)=N1)OCCOCCOCCOP1(OCCOCCOC)=NP(OCCOCCOC)(OCCOCCOC)=NP(OCCOCCOC)(OCCOCCOC)=N1 (repeat unit)
270.00 | *Nc1ccc(Cc2ccc(NC(=O)c3cc(C(*)=O)cc(S(=O)(=O)c4ccccc4)c3)cc2)cc1 (repeat unit)
302.00 | *Nc1ccc(Cc2ccc(NC(=O)c3cc(NC(=O)c4ccncc4)cc(C(*)=O)c3)cc2)cc1 (repeat unit)
-11.00 | *O[Si](C)(CCC(F)(F)F)CCC(F)(F)C(F)(F)C(F)(F)C(F)(F)C(F)(F)C(F)(F)C(F)(F)C(F)(F)C(F)(F)C(F)(F)CC[Si](*)(C)CCC(F)(F)F (repeat unit)
274.00 | *c1ccc(Oc2ccc(Oc3ccc(N4C(=O)C5CCC6C(=O)N(*)C(=O)C6C5C4=O)cc3)cc2)cc1 (repeat unit)

glass transition temperature [°C] | Structure (SMILES)
345.00 | *c1c(C)cc(C)c(N2C(=O)c3ccc(Oc4ccc(Oc5ccc6c(c5)C(=O)N(*)C6=O)cc4)cc3C2=O)c1C (repeat unit)
117.00 | *CCCCCCCCOc1cccc(NC(=O)c2cccc(C(=O)Nc3cccc(O*)c3)c2)c1 (repeat unit)
195.00 | *Oc1ccc(-c2ccc(Oc3ccc(C(=O)c4ccc5cc(C(=O)c6ccc(*)cc6)ccc5c4)cc3)cc2)cc1 (repeat unit)
227.00 | *c1ccc(-c2ccc(NC(=O)c3cccc(C(=O)Nc4ccc(-c5ccc(-n6c(=O)c7cc8c(=O)n(*)c(=O)c8cc7c6=O)cc5)cc4)c3)cc2)cc1 (repeat unit)
-26.00 | *CCCCCCCCCCCCCCCCOC(=O)CCCCCCC(=O)O* (repeat unit)
24.00 | *CCOC(=O)CCC(=O)OCCOC(=O)c1ccc(C(=O)O*)cc1 (repeat unit)
161.00 | *Oc1ccc(-c2ccc(OC3(F)C(*)(F)C(F)(F)C3(F)F)cc2)cc1 (repeat unit)
234.00 | *c1ccc(Oc2ccc(N3C(=O)c4cccc(Oc5ccc(Sc6ccc(Oc7cccc8c7C(=O)N(*)C8=O)cc6)cc5)c4C3=O)cc2)cc1 (repeat unit)
99.00 | *CC(*)(C)C(=O)Oc1ccc(C(=O)Oc2ccccc2)cc1 (repeat unit)
135.00 | *CC(O)COc1c(Cl)cc(C(C)(C)c2cc(Cl)c(O*)c(Cl)c2)cc1Cl (repeat unit)
300.00 | *Nc1cccc(NC(=O)c2cc(NC(=O)c3ccccc3)cc(C(*)=O)c2)c1 (repeat unit)
262.00 | *c1ccc(C(=O)Nc2cccc(Oc3ccc(S(=O)(=O)c4ccc(Oc5cccc(NC(=O)c6ccc(N7C(=O)c8ccc(-c9ccc%10c(c9)C(=O)N(*)C%10=O)cc8C7=O)cc6)c5)cc4)cc3)c2)cc1 (repeat unit)
262.00 | *c1ccc(Oc2ccc(-c3ccc(Oc4ccc(N5C(=O)c6ccc(Oc7cc(C(C)(C)C)c(Oc8ccc9c(c8)C(=O)N(*)C9=O)cc7C(C)(C)C)cc6C5=O)cc4)cc3)cc2)cc1 (repeat unit)
75.00 | *CCCCCCOc1ccc(C(=O)N(C(=O)c2ccc(O*)cc2)c2cc(C)cc(C)c2)cc1 (repeat unit)
193.00 | *Oc1ccc(-c2ccc(Oc3ccc(C(=O)c4ccccc4-c4ccccc4C(=O)c4ccc(*)cc4)cc3)cc2)cc1 (repeat unit)
30.00 | *CC(*)C(=O)Oc1ccccc1C(=O)OCC (repeat unit)
-66.40 | *O[Si](*)(CCCOCCOCCOCCOCCOCCOCCOCCOC)CCCOCCOCCOCCOCCOCCOCCOCCOC (repeat unit)
172.00 | *Oc1ccc(C(C)(c2ccccc2)c2ccc(OC(=O)c3ccccc3-c3ccccc3C(*)=O)cc2)cc1 (repeat unit)
247.00 | *c1ccc2c(c1)C(=O)N(c1ccc(Oc3ccccc3Oc3ccc(N4C(=O)c5ccc(C(*)(C(F)(F)F)C(F)(F)F)cc5C4=O)cc3C(F)(F)F)c(C(F)(F)F)c1)C2=O (repeat unit)
258.00 | *c1cc(C(=O)OC)cc(N2C(=O)CC(C3Cc4ccccc4C4C(=O)N(*)C(=O)C43)C2=O)c1 (repeat unit)
72.00 | *CCCCCCCCOc1ccc(/C=C2\CCC/C(=C\c3ccc(O*)c(OC)c3)C2=O)cc1OC (repeat unit)
305.00 | *c1ccc(-c2ccc(-c3ccc(-c4cnc5ccc(-c6ccc7ncc(*)nc7c6)cc5n4)cc3)cc2)cc1 (repeat unit)
36.00 | *CCCCCCCCCCCCOC(=O)NCCCCCCNC(=O)O* (repeat unit)
-59.00 | *CCOCCOC(=O)C(CCCCCCCCC)C(=O)O* (repeat unit)
219.00 | *c1ccc(Oc2cccc(Oc3ccc(N4C(=O)c5ccc(Oc6ccc(S(=O)(=O)c7ccc(Oc8ccc9c(c8)C(=O)N(*)C9=O)cc7)cc6)cc5C4=O)cc3)c2)cc1 (repeat unit)
265.00 | *Oc1ccc(C(C)(C)c2ccc(OC(=O)c3ccc4c(c3)C(C)(c3ccc(C(*)=O)cc3)CC4(C)C)cc2)cc1 (repeat unit)
355.8 ± 42 | *c1ccc(N2C(=O)c3ccc(Oc4ccc5c(c4)C(=O)N(*)C5=O)cc3C2=O)cc1 (repeat unit)

Structure (SMILES) | glass transition temperature [°C]
*NC(CCC(=O)OCC)C(*)=O (repeat unit) | 0.00
*CCCCCCOP(=O)(/N=N/c1ccc(CCOC(=O)c2cc(C(=O)OCCc3ccc(/N=N/P(=O)(O*)OC)cc3)cc(C(C)(C)C)c2)cc1)OC (repeat unit) | 47.00
*Cc1ccc(COP(=O)(/N=N/c2ccc(C(=O)c3ccc(/N=N/P(=O)(O*)OC)cc3)cc2)OC)cc1 (repeat unit) | 48.00
*C1C(*)C2CC1C1C=CCC12 (repeat unit) | 145.00
*Oc1ccc(NC(=O)c2ccc(P(=O)(c3ccccc3)c3ccc(C(=O)Nc4ccc(*)cc4)cc3)cc2)cc1 (repeat unit) | 254.00
*c1ccc2c(c1)C(=O)N(c1cccc(P(=O)(c3ccc(C(F)(F)F)cc3)c3cccc(N4C(=O)c5ccc(C(*)(C(F)(F)F)C(F)(F)F)cc5C4=O)c3)c1)C2=O (repeat unit) | 260.00
*CCOCCOC(=O)CC(=O)O* (repeat unit) | -41.50
*SC1CCCC(*)C1 (repeat unit) | -52.00
*CC(*)CCCCCCCCCC (repeat unit) | -6.00
*CC1CCC(COC(=O)O*)CC1 (repeat unit) | 38.70
